Activity data for four compounds are collected here from ChEMBL document CHEMBL1154270, “Light-independent metabolomics of endophytic Thielavia subthermophila provides insight into microbial hypericin biosynthesis” (J Nat Prod, 2009).

Active and inactive are the calls of the source. No cut-off for these calls is given here.

For experiment [1], the system named is THP-1. The experiment is described as follows: Cytotoxicity against human THP1 cells after 48 hrs assessed morphological changes compound exposed to light for 20 mins before treatment. Format: functional, cell-based.
For experiment [2], the system named is THP-1. Kind of experiment: Cytotoxicity against human THP1 cells after 48 hrs assessed as morphological changes in the dark condition. Format: functional, cell-based.

Turning to `Cc1cc(O)c2c(c1)C(=O)c1cc(O)cc(O)c1C2=O`, the outcome with THP-1 [1] and in the experiment with THP-1 [2] was Active.
As for `Cc1cc(O)c2c(c1)Cc1cc(O)cc(O)c1C2=O`, the outcome with THP-1 [1] and with THP-1 [2] was Active.
Consider `Cc1cc(O)c2c(=O)c3c(O)cc(O)c4c5c(O)cc(O)c6c(=O)c7c(O)cc(C)c8c1c2c(c34)c(c78)c65`, for which the result in the experiment on THP-1 [1] and with THP-1 [2] was Active.
Regarding `Cc1cc(O)c2c(=O)c3c(O)cc(O)c4c5c(O)cc(O)c6c(=O)c7c(O)cc(C)cc7c(c65)c(c2c1)c34`, the result in the experiment with THP-1 [1] and with THP-1 [2] was Active.
